What was measured:
SARS-CoV-2 strain FI = assay: Plaque assay, infection of Vero cells with SARS-CoV-2 upon MEK inhibition; format: cell-based; conditions: MOI 0.01, 50 μM, 24 h, 36 h and 48 h
Method: To determine the virus titer a standard plaque assay was performed. Vero cells were infected with SARS-CoV-2 strain FI (MOI 0.01). 1 hour post infection, the cells were treated with 50 μM ATR-002 or the respective amount of DMSO as a control. The compounds were present in the culture medium during the complete infection time. After 24, 36 and 48 hpi, supernatants were collected and virus titers quantified by plaque assay below.
Vero E6 cells were seeded at 100% confluency in 6-well plates (Greiner Bio-One, Cat. 657-160). 6-fold dilutions of virus samples were prepared in Vero E6 infection medium (IMDM, Gibco, Cat. 12440-053) supplemented with 5% FCS (Capricorn, Cat. FBS-12A) and 1% Penicillin/Streptomycin (Sigma Aldrich Cat. P4333). The cells were washed once with Vero E6 infection medium before infection with 1 mL per well of the virus dilutions for 1 h at 37° C., 5% CO2. […] The virus titer was calculated based on the number of plaques per well and the respective dilution factor.

[1] = tested on: SARS-CoV-2 viral gene RdRP; format: cell-based; conditions: Vero cells, MOI 0.01, 50 μM, 24, 36 and 48 hpi
SARS-CoV-2 = format: cell-based; conditions: Caco-2, Vero E6, Calu-3; MOI 0.01; 100, 75, 50 μM; 24 h
Calu-3 cells = assay: Cytotoxicity evaluation in Calu-3 cells; format: cell-based, Homo sapiens; conditions: Calu-3, 72 h treatment
Method: In a next step, Calu-3 cells were incubated with increasing amounts of ATR-002 over 24, 48 or 72 hours. Specifically, Calu-3 cells were infected with SARS-CoV-2 (FI) using a MOI of 0.01. 1 h.p.i. cells were treated with ATR-002. Mock, SARS-CoV-2 and DMSO served as controls. […] Untreated (SARS-CoV-2) and DMSO (0.1%) treated cells served as negative controls. […] DMSO was used as reference. […] Data in combination with (C) was used to calculate the CC50 value and the selectivity index (SI).

[2] = tested on: cytokine & chemokine gene expression in lungs; assay: Acute lung injury (ALI) mouse model, LPS induced cytokine and chemokine gene expression; format: in vivo; conditions: LPS 5 mg/kg i.p.; 25 mg/kg i.p. 1 h post stimulation; 6 h post treatment
MCP-1 = MCP-1 in SARS-CoV-2 infected CaCo2 cells; format: cell-based, Homo sapiens; conditions: high amount necessary
[3] = tested on: IL-6, IL-8, MCP-1, IP-10 and CCL5 mRNA; assay: Pro-inflammatory cytokine mRNA in SARS-CoV-2 infected Calu-3 cells (real-time PCR); format: cell-based, Homo sapiens; conditions: Calu-3, SARS-CoV-2 (FI) MOI 0.01, increasing amounts
LPS induced PMBC cells = assay: LPS induced cytokine expression in PBMC; format: cell-based, human; conditions: 10 μg/ml
Excerpt: In order to check what concentration of ATR-002 would be necessary for cytokine reduction, the amounts of IP10, TNF-alpha and MCP-1 expression was studied in LPS induced PMBC cells after ATR-002 treatment.

[4] = tested on: peripheral blood mononuclear cells (PBMC's); assay: T-Cell Inflammation Inhibition Assay (ConA Stimulation); format: cell-based, human; conditions: ATR-002 100, 50, 25 μM, Dexamethasone 100 nM, 24 h
[5] = human, in vivo
Method: Specifically, as described previously, in Phase I clinical studies PD-0184264 was administered with a starting dose of 100 mg and up to three escalation steps in seven arms, following a single ascending dose/multiple ascending dose (SAD/MAD) regime. Administration scheme was one dose PD-0184264, escalating 100 mg to 900 mg (SAD), followed by seven doses PD-0184264, escalating 100 mg to 600 mg QD over seven days (MAD).

SARS-CoV-2 (FI) = format: cell-based; conditions: primary human ALI cultures, MOI 1.0, 50 μM and 100 μM, three cultures
[6] = tested on: VSV pseudotype virus carrying the SARS-CoV-2 Spike protein; format: cell-based
[7] = tested on: MxA and IL8 mRNA expression; assay: poly (I:C) stimulation of A549 cells, MxA and IL8 mRNA; conditions: A549, 100 ng/ml poly (I:C), 24 h

## O=C(O)c1ccc(F)c(F)c1Nc1ccc(I)cc1Cl [ATR-002, 2-(2-chloro-4-iodophenylamino)-N-3,4-difluoro benzoic acid]
SARS-CoV-2 strain FI
  viral load (plaque assay): lower viral load than control cells
[1]
  SARS-CoV-2 viral gene RdRP genome copies: confirmed
SARS-CoV-2
  virus titer via RT-qPCR, effect across cell types: effect seen on all cell types was comparable
Calu-3 cells
  cytotoxicity at antiviral concentrations: non-toxic concentration range
[2]
  IL-1beta gene expression in lung: decrease
  IL-8 gene expression in lung: decrease
  IP-10 gene expression in lung: decrease
  MCP-1 gene expression in lung: decrease
  MIP-1beta gene expression in lung: decrease
  TNF-alpha gene expression in lung: decrease
MCP-1
  MCP-1 expression: able to reduce MCP-1 expression
[3]
  expression of pro-inflammatory cytokines (IL-6, IL-8, MCP-1, IP-10, CCL5 mRNA): reduce the expression of pro-inflammatory cytokines
LPS induced PMBC cells; LPS induced PBMC
  IP10 expression: reduced
  TNF-alpha expression: reduced
LPS induced PMBC cells; PBMC, human PBMCs, read-out: inhibition of LPS induced MCP-1
  inhibition at 10 µg/mL: > 90%
[4]
  inhibition of cytokine/chemokine stimulation (summary): significant, dose dependent inhibition
[5]
  pharmacokinetic profile: supports the intended once-daily regime
  pharmacokinetics exposure, blood levels: maintenance of clinically relevant blood levels
  safety of each dose cohort (Safety Review Committee): considered to be safe
SARS-CoV-2 (FI)
  production of progeny viral particles: completely blocked the production of progeny viral particles
[6]
  internalization of the VSV pseudotype virus (GFP positive cells): reduction in the internalization
[7]
  MxA mRNA expression (anti-viral interferon system): constant expression of MxA mRNA
[7]; even low concentrations
  IL8 mRNA expression: strong reduction

— patent US20230241014A1, “MEK-INHIBITORS FOR THE TREATMENT OR PREVENTION OF CORONAVIRUS INFECTIONS AND/OR COVID-19 CYTOKINE STORM” (priority 2020, published 2023)
